Data on nine compounds can be found in US5888971A, “Macrocyclic peptides useful in the treatment of thrombin related disorders” (Ortho Pharmaceutical Corporation, Inc., priority 1996, dated 1999).

Assay [1] has as its target T1, human alpha-thrombin (Homo sapiens, UniProt P00734).
T1 construct: commercial human alpha-thrombin (American Diagnostica); purchased American Diagnostica
Kind of assay: Thrombin-catalyzed hydrolysis of chromogenic substrate, Michaelis-Menten Ki. Type of assay: biochemical. To be noted: 1 nM thrombin, 5-100 μM Spectozyme TH, 37° C., pH 7.4, Michaelis-Menten kinetics; for Ki: read-out: Thr Ki. As to the method: (§1) The compounds of the invention were tested for their ability to inhibit thrombin mediated hydrolysis.
Changes in absorbance at 405 nm were monitored (Softmax, Molecular Devices), upon addition of enzyme, both with and without inhibitor present at 37° C. over 30 minutes. […] Michaelis-Menton kinetics were applied to the initial reaction slopes using the program K Cat (Bio Metallics Inc.).

The next assay addresses T2, Bovine type 1 trypsin (Bos taurus, UniProt P00760).
T2 construct: purchased Sigma
T2 sequence (P00760 24-246): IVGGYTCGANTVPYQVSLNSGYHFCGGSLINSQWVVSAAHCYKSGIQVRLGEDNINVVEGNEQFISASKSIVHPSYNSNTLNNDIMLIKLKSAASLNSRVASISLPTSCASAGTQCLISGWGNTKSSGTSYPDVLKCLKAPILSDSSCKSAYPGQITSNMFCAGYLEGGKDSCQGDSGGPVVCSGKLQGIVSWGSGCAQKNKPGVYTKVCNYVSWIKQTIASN
Description: Trypsin-catalyzed hydrolysis of chromogenic substrate, Ki. The note with it: 3.2 U/ml trypsin, 0.1-0.3 mM Spectrozyme TRY; read-out: Trp Ki. The class given is biochemical. As to the method:
as §1
Trypsin-catalyzed hydrolysis rates were measured using the same method as the thrombin procedure.

In assay [2] the target is T1, human alpha-thrombin. Description: Slow, tight-binding kinetics with thrombin (Ki-slow). The class given is biochemical. To be noted: 0.1 nM thrombin, 50 μM Spectozyme TH, 25° C., 4 h; read-out: Thr Ki -slow. As to the method:
Ki-slow was determined by measuring enzyme-catalyzed hydrolysis rates. […] The compound numbers in the table correspond to the examples described hereinafter.

Another assay has as its target thrombin (Homo sapiens, UniProt P00734). To be noted: background section; cited from earlier work.

Consider “5R,14R,18S,20aS-N-[3-(5-BENZYL-14-METHYI-4,7,13,16,17,20-HEXAOXOEICOSAHYDRO-3a,6,12,15,19-PENTAAZACYCLOPENTA-CYCLONONADECEN-18-YL)PROPYL]GUANIDINE TRIFLUOROACETIC ACID [Compound 21]”, for which the values for the Ki at human alpha-thrombin [1], at Bovine type 1 trypsin and on human alpha-thrombin [2] were 92 ± 46 nM, 22 ± 14 nM and 4.71 ± 1.51 nM, respectively.

Regarding `N=C(N)NCCC[C@@H]1NC(=O)[C@@H]2CCCN2C(=O)[C@@H](NC=O)CNC(=O)/C=C/[C@H](Cc2ccc(O)cc2)NC(=O)[C@@H](Cc2ccccc2)NC(=O)C1=O` [CtA, Cyclotheonamide A, reference compound], the inhibition constant Ki at human alpha-thrombin [1] was 170 ± 80 nM; at Bovine type 1 trypsin, 23000 nM; on human alpha-thrombin [2] it was 4 ± 1.9 nM; at thrombin, 1 to 2 nM. Further, the “selectivity for thrombin over trypsin” value at thrombin was “does not favor thrombin”.

In the case of “5R, 2S, 18S-N-[3-(5-NAPTHALEN-2-YLMETHYL-4, 17, 16, 17, 20-PENTAOXOEICOSAHYDRO-3a, 6, 15, 19-TETRAAZACYCLOPENTACYCLONONADECEN-18-YL)PROPYL] GUANIDINE TRIFLUOROACETATE HYDRATE [Compound 6]”, the figures for the Ki at human alpha-thrombin [1] and on Bovine type 1 trypsin were 21 ± 5 nM and 6.8 ± 5 nM, respectively.

As for `CN[C@H](Cc1ccccc1)C(=O)N1CCC[C@H]1C(=O)N[C@H](C=O)CCCN=C(N)N` [N-Me-PPAC, N-Me PPACK aldehyde, reference compound], the Ki at human alpha-thrombin [1] worked out at 10 nM.

As to “[20aR-(20aR, 5R, 18S)]-N-[3-(5-PHENYLETHYL-17-HYDROXY-4, 7, 16, 20-TETRAOXOEICOSAHYDRO-3a, 6, 15, 19-TETRA-AZACYCLONONADECANE-18-YL) PROPYIL] GUANIDINE [Compound 22]”, the “Thr Ki” value on human alpha-thrombin [1] is “no activity at 50 μM”.

For `N=C(N)NCCCC1NC(=O)CCCCCNC(=O)C(Cc2ccccc2)NC(=O)C1=O` (centres unmarked) [Compound 18, N-[3-(3-BENZYL-2,5,6,9-TETRAOXO-1,4,8-TRIAZACYCLOTETRADEC-7-YL)PROPYL]GUANIDINE TRIFLUOROACETIC ACID], the Ki is 3800 ± 200 nM at human alpha-thrombin [1] and 310 ± 10 nM at Bovine type 1 trypsin.

“5R,15R,19S,21 AS-N-[3-(15-BENZHYDRYL-5-BENZYL-4,7,14,17,18,21-HEXAOXODOCOSAHYDRO-3a,6,13,16,20-PENTMZACYCLOPENTACYCLOEICOSEN-19-YL)PPROPYL]GUANIDINE TRIFLUOROACETIC ACID [Compound 19]”: the inhibitory constant (Ki) stood at 5.3 ± 2.6 nM at human alpha-thrombin [1] and 2.5 ± 0.75 nM at Bovine type 1 trypsin.

As to “6R, 19S, 22S-N-[3-(6-BENZYL-5, 8, 17, 18, 21-PENTAOXODOCOSAHYDRO-4a, 7, 16, 20-TETRAAZABENCBZOCYCLONONADECEN-19-YL) PROPYL] GUANIDINE TRIFLUOROACETIC ACID HYDRATE [Compound 5]”, the Ki at human alpha-thrombin [1] is 90 ± 8.6 nM; at Bovine type 1 trypsin, 85 ± 29 nM.

For “3S,6S,12R-N-[3-(12-BENZYL-2,5,11,14,20-PENTAOXO-23-THIA-4,10,13,19,24-PENTAAZATRICYCLO[19.2.1.3]-6,10-TETRACOSA-1(2H), 21-DIEN-3-YL)PROPYL]GUANIDINE [Compound 23]”, the inhibitory constant (Ki) was 1000 ± 400 nM at human alpha-thrombin [1] and 66 ± 26 nM at Bovine type 1 trypsin.

By Ki is commonly meant a dissociation constant, usually derived from enzyme kinetics or from competition with a known ligand.
